In ChEMBL document CHEMBL1131752, “Binding and catalysis by yeast aldose reductase: a substrate-analog approach with new aldose derivatives” (Bioorg Med Chem Lett, 1999) one finds k cat/Km and k cat data, which are given here for five compounds.

Test [1] concerns Xylose reductase (Candida tenuis). Description: Ratio of catalytic constant (kcat)/Kinetic constant(Km).
The test system is the same in test [2]. Description: The catalytic constant(kcat) for the NADH-catalyzed by aldose reductase from candida tenuis. The following applies: Yamadazyma tenuis.

Each structure is given as a SMILES string.

As to `OC1OC(C(F)CF)C(O)C1O` (centres undefined), the k cat/Km in test [1] is 15300 M⁻¹ s⁻¹. The k cat in test [2] was found to be 21.4 s⁻¹.
Taken in the same sequence, the figures for `OC1O[C@H](CF)[C@H](O)[C@H]1O` (some centres undefined) were 34300 M⁻¹ s⁻¹ and 22.3 s⁻¹.
In the same order, the values of `CC[C@H]1OC(O)[C@H](O)[C@H]1O` (some centres undefined) are 38900 M⁻¹ s⁻¹ and 20.6 s⁻¹.
On to `[N-]=[N+]=NC[C@H]1OC(O)[C@H](O)[C@H]1O` (some centres undefined), for which the k cat/Km in test [1] worked out at 1690 M⁻¹ s⁻¹.
On to `C[C@H]1OC(O)[C@H](O)[C@H]1O` (some centres undefined), for which the k cat/Km in test [1] is 23200 M⁻¹ s⁻¹. Besides, the k cat in test [2] worked out at 21.6 s⁻¹.
